# Values quoted from earlier work, collected in patent US11554108B2, “Methods and compositions for treating cutaneous fungal infections” (Xeropedix, Inc., priority 2016, dated 2023).
# Like-named read-outs stand apart in the source and are kept apart here.
# Legend:
# [1] = molecular target: transient receptor potential vanilloid 1 (TRPV1) cation channel (Homo sapiens, UniProt Q8NER1); conditions: lowered from approximately 42° C.
# [2] = not given; remark: listed apart in the source
# transient receptor potential vanilloid 1 (TRPV1) cation channel, sequence (Q8NER1 whole entry): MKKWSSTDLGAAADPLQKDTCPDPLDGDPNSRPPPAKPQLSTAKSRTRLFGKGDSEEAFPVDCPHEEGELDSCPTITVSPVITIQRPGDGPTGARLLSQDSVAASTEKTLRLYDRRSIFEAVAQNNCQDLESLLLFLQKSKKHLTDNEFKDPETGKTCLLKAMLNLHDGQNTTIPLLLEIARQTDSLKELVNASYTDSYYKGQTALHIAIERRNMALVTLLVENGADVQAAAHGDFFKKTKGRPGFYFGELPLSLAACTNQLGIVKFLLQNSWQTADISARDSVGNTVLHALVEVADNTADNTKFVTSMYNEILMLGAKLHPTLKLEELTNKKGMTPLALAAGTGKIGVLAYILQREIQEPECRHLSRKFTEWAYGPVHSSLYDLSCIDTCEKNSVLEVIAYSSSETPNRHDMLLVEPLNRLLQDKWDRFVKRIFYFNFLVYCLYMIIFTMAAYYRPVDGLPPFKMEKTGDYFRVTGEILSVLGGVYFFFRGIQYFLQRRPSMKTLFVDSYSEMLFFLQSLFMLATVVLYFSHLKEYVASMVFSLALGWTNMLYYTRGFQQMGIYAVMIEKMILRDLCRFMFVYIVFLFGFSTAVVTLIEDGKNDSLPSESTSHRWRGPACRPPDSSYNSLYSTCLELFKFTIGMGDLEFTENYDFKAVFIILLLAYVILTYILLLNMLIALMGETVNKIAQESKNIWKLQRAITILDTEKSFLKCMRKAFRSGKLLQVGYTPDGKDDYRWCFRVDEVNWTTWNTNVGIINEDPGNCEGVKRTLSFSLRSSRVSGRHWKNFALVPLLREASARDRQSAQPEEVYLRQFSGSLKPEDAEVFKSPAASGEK
molecule,measurement,setting,value
CCO [Ethanol],threshold temperature at which TRPV1 signals excessive heat,[1],34 °C
[Cl][Al]([Cl])[Cl] [aluminum chloride],reduction of unpleasant symptoms of tinea pedis,tinea pedis; 30% aluminum chloride solution,effective at reducing unpleasant symptoms
same,resolution of the infection,tinea pedis; 30% aluminum chloride solution,did not resolve the infection entirely
same,inhibition of T. mentagrophytes in an in vitro MIC test,"T. mentagrophytes; 10% aluminum chloride, equal to 100,000 μg/ml",no inhibition
same,inhibition of T. mentagrophytes in an in vitro MIC test,"T. mentagrophytes; 20% aluminum chloride, equal to 200,000 μg/ml",inhibited the fungus
CN(C/C=C/C#CC(C)(C)C)Cc1cccc2ccccc12 [terbinafine],minimum fungicidal concentration against T. rubrum,T. rubrum,3 ng/mL
same,"rate of absorption, maximum concentration, and half-life in the skin",ethanol gel compared to a standard cream formulation,improve
same,percutaneous terbinafine absorption,"in vivo, ethanol solution compared to isopropyl myristate solution",enhanced
same,stratum corneum concentration,[2]; 24 hours after a single application of 1% terbinafine cream,37 ng/cm^2
same,concentration of terbinafine in the stratum corneum,"[2]; 24 hours after application of 1% terbinafine cream, converted with 1 ng/cm^2=4 μg/ml",approximately 148 μg/ml
aluminum chlorohydrate,effectiveness against tinea pedis relative to aluminum chloride,tinea pedis; in vivo,less effective than aluminum chloride
